According to patent US20080058330A1, “Compounds and Combinations Thereof for Inhibiting Beta-Amyloid Production and Methods of Use Thereof” (Roskamp Research LLC, priority 2006, published 2008):
Blank lines part the entries; values can stand above or below the molecule they belong to.

Assays:
7W WT APP751 CHO cells = test: Screening of dihydropyridine compounds of Table 2, Aβ1-40 and Aβ1-42 ELISA (Example 5); type: cell-based, Chinese hamster; details: for concentration of Aβ1-40 compared to control: 3 and 10 μM, 24 hours (FIG. 24)
Experimental: Chinese hamster ovary (CHO) cells, stably transfected with human APP751 (7W WT APP751 CHO cells) were used. See, e.g., Koo and Squazzo, J. Biol. Chem., Vol. 269, Issue 26, 17386-17389, July, 1994. The cells were maintained in DMEM medium supplemented with 10% fetal bovine serum and IX mixture of penicillin/streptomycin/fungizone/glutamine mixture (Cambrex, Md.) geneticin as selecting agent in 75 cm^2 cell culture flasks.
The 7W WT APP751 CHO cells were plated in 24-well cell culture plates in quadruplicate, containing 1 ml of culture medium, and treated with various calcium channel blocker compounds for 4 hours, 24 hours or 48 hours at 37° C. and 5% CO2. All test compounds were diluted in dimethyl sulfoxide (DMSO) before being added to the cultured confluent 7W WT APP751 CHO cells. The culture medium was collected and diluted 5-fold for the 4 hours assay and 50-fold for the 24 hour assay before being assayed by ELISAs for Aβ1-40 and Aβ1-42, respectively. Concentrations of Aβ1-40 and Aβ1-42, expressed in pg/ml, were determined using commercially available ELISAs (Biosource, Calif.) in a colorimetric assay using labeled antibodies detected spectrophotometrically.
The screening of dihydropyridine compounds was conducted according to the procedure described in Example 1. Each compound was added to confluent cells to a final concentration of 3, 10, 30 or 100 μM and tested. Each of these compounds was added to confluent cells to a final concentration of 3 μM (noted as “C” in FIG. 24) or 10 μM (noted as “B” in FIG. 24).

Tg APPsw mice = Tg APPsw mice given the NSAID; correlating with decreased microglial activation; cited from earlier work

melting point: 151 to 152.5 °C
Compound: CCOC(=O)C1=C(C)NC(C)=C(C(=O)OCC)C1c1ccccc1F [Example 2-27, Diethyl 4-(2-fluorophenyl)-1,4-dihydro-2,6-dimethylpyridine-3,5-dicarboxylate]
concentration of Aβ1-40 or Aβ1-42 compared to control (7W WT APP751 CHO cells; 3, 10, 30 and 100 μM, 24 hours (FIGS. 22A, 22B, 23A, 23B)): decreased

Compound: CC(C)Cc1ccc(C(C)C(=O)O)cc1 (centres unmarked) [ibuprofen]
β-amyloid deposits, astrocytosis, and dystrophic neurites (Tg APPsw mice): reduction

Compound: CC1=C(C(=O)OC(C)(C)C)C(c2cccc(F)c2F)C(C(=O)OC(C)(C)C)=C(C)N1 [Example 3-23]
concentration of Aβ1-40 compared to control (7W WT APP751 CHO cells): decreased

Compound: CC1=C(C(=O)OC(C)(C)C)C(c2ccc(Br)cc2F)C(C(=O)OC(C)(C)C)=C(C)N1 [Example 3-34, Di-tert-butyl 4-(4-bromo-2-fluorophenyl)-1,4-dihydro-2,6-dimethylpyridine-3,5-dicarboxylate]
concentration of Aβ1-40 compared to control (7W WT APP751 CHO cells): decreased
